Structures can show the parent of a compound that is named as a salt.
Experiments:
Recombinant human renin = molecular target: T1, Recombinant human renin (Homo sapiens, UniProt P00797); assay: Renin inhibition in a purified system (FRET, synthetic substrate Dabcyl-gaba-IHPFHLVIHT-EDANS); assay type: biochemical; conditions: renin 10 nM, substrate 10 μM, 2 h, room temperature, pH 8
T1 construct: made in house; host or cells: Chinese Hamster Ovary (CHO) cells
T1 sequence (P00797 67-406): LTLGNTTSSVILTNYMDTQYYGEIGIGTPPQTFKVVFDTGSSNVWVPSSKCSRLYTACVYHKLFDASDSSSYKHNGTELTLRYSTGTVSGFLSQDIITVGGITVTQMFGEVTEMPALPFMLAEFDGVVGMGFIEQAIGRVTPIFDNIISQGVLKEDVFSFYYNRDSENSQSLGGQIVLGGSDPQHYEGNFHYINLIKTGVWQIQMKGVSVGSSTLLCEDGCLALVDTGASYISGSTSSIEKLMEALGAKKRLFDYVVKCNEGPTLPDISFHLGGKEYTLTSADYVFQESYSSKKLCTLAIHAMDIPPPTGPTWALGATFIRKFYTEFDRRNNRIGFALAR
Procedure: The protocol for the determination in a purified system of the in vitro IC50s of the compounds of the invention is described hereafter.
Recombinant human renin (expressed as prorenin in Chinese Hamster Ovary and purified after activation in active renin using standard methods) at 10 nM concentration is incubated with test compounds at various concentrations and the synthetic substrate Dabcyl-gaba-IHPFHLVIHT-EDANS (Bachem) at 10 μM for 2 h at room temperature, in 0.05 M Tris buffer pH 8 containing 0.1 M NaCl, 2.5 mM EDTA and 1.25 mg/ml bovine serum albumin. Increase in fluorescence (due to the Fluorescence Resonance Energy Transfer) is recorded at an excitation wave-length of 330 nm and at an emission wave length of 485 nm in a microplate spectrofluorometer. IC50 values are calculated from the percentage of inhibition of renin activity as a function of test compound concentration.

IC50 (Recombinant human renin) [nM] | melting point [°C] | SMILES
23 |  | COCCCOc1cc(CCC(=O)NC(=N)NCCC(C)C)ccc1-c1ccc(CN2CCC(N(C)C)CC2)cc1 [Compound 11]
98 |  | COCCCOc1cc(CCC(=O)NC(=N)N)ccc1-c1cccnc1 [Compound 21, hydrochloride]
126 |  | COCCCOc1cc(CCC(=O)NC(=N)N)ccc1-c1nccs1 [Compound 157]
42 |  | COCCCOc1cc(CCC(=O)NC(=N)N)ccc1-c1ccc(CN2CCN(C)CC2=O)cc1 [Compound 78]
79 |  | COCCCOc1cc(CCC(=O)NC(=N)N)ccc1-c1ccc(CN2CCCCC2)cc1 [Compound 13, N-[amino(imino)methyl]-3-[2-(3-methoxypropoxy)-4′-(piperidin-1-ylmethyl)biphenyl-4-yl]propanamide hydrochloride]
 | 54 to 55 | CNC(=N)NC(=O)CCc1ccc(-c2cccc(N(C)C(=O)N3CCOCC3)c2)c(OCCCOC)c1.Cl
 | 105.5 | COCCCOc1cc(C(C)(C)CC(=O)NC(=N)N)ccc1-c1ccc(CN2CCC(N(C)C)CC2)cc1 (as salt: HCl) [Compound 22]
53 |  | COCCCOc1cc(CCC(=O)NC(=N)N)ccc1-c1ccc(CN2CCN(C)C2=O)cc1 [Compound 173]
70 |  | CCCCNC(=N)NC(=O)CCc1ccc(-c2ccc(CN3CCN(CC(=O)N(C)C)CC3)cc2)c(OCCCOC)c1 [Compound 30]
 | 128 | COCCCOc1cc(CCC(=O)NC(=N)NCCc2ccccn2)ccc1-c1ccc(CN2CCC(N(C)C)CC2)cc1 (as salt: HCl) [Compound 6]
10 |  | COCCCOc1cc(C(C)(C)CC(=O)NC(=N)N)ccc1-c1ccc(CN2CCC(N(C)C)CC2)cc1 [Compound 22]
100 |  | COCCCOc1cc(CCC(=O)NC(=N)NCCc2ccccn2)ccc1-c1ccc(CN2CCC(N(C)C)CC2)cc1 [Compound 6]
228 |  | CCCNC(=N)NC(=O)CC(C)(C)c1ccc(-c2ccc(C(=O)N3CCN(C)CC3)cc2)c(OCCCOC)c1 [Compound 25, N-[imino(propylamino)methyl]-3-{2-(3-methoxypropoxy)-4′-[(4-methylpiperazin-1-yl)carbonyl]biphenyl-4-yl}-3-methylbutanamide hydrochloride]
19 |  | COCCCOc1cc(CCC(=O)NC(=N)N)ccc1-c1ccc(CN2CCC(N(C)C)CC2)cc1 [Compound 2, N-[amino(imino)methyl]-3-[4′-{[4-(dimethylamino)piperidin-1-yl]methyl}-2-(3-methoxypropoxy)biphenyl-4-yl]propanamide hydrochloride]
48 |  | CNC(=N)NC(=O)CCc1ccc(-c2ccc(Cl)c(CS(=O)(=O)C(C)(C)C)c2)c(OCCCOC)c1 [Compound 194, 3-{3′-[(tert-butylsulfonyl)methyl]-4′-chloro-2-(3-methoxypropoxy)biphenyl-4-yl}-N-(methylcarbamimidoyl)propanamide hydrochloride]
19 |  | COCCCOc1cc(CCC(=O)NC(=N)N)ccc1-c1cccc(CN2CCCCC2=O)c1 [Compound 179]
 | 132 | COCCCOc1cc(CCC(=O)NC2=NC(=O)C(C)(C)CN2)ccc1-c1ccc(CN2CCC(N(C)C)CC2)cc1.Cl
143 |  | CCCCNC(=N)NC(=O)CCc1ccc(-c2ccc(CNCC(c3ccccc3)N(C)C)cc2)c(OCCCOC)c1 (stereo not shown) [Compound 48, N-butyl-N′-{3-[4′-[(2-dimethylamino-2-phenyl-ethylamino)-methyl]-2-(3-methoxy-propoxy)-biphenyl-4-yl]-propionyl}-guanidine, trifluoro-acetic acid salt]
 | 61.5 | COCCCOc1cc(CCC(=O)NC(=N)N)ccc1-c1ccc(CN2CCN(C)CC2=O)cc1 (as salt: HCl) [Compound 78]
